{"source": "patent US11471448B2", "about": "(priority 2020, dated 2022)", "tested_on": "rat venous stasis model, LPS-induced ARDS", "test": "Rat venous stasis (Wessler) model after LPS-induced lung injury (ARDS induced thrombosis)", "type": "in vivo", "conditions": "250 mg/kg oral gavage 3, 24, 48, 72 h post LPS instillation; Sprague-Dawley rats; 30 min stasis", "from_the_text": "This study assessed the efficacy of ABC294640 to reduce the incidence of adverse thromboembolic events in situ in acute respiratory distress syndrome (ARDS) conditions using a rat venous stasis model. This assay is designed to measure thrombotic risks following LPS-induced lung injury. LPS-induced lung injury is one of the most commonly used rodent models for ARDS and was described to mimic the neutrophilic inflammatory response observed in ARDS patients. The mechanism of LPS-induced ARDS is based on damage to endothelial cells and a systemic inflammatory response. […]\nSprague-Dawley rats (male) weighing between 275 and 400 g were used for this study. […] The body weight was recorded before the instillation and 24, 48 and 72 hours post-instillation.\nIn this study, ARDS was induced by intratracheal instillation of LPS. […] The segment was then excised and its content scored. […]\n• 1. Prior LPS or saline instillation, the functional respiratory parameters of all rat was assessed by whole-body plethysmography and SpO2 was evaluated on conscious rat with a collar probe pulse oximeter. […] The respiratory rate, the Penh and the inspiratory/expiratory time measurements was analyzed. • 2. […]\n• 5. Rats were evaluated periodically to ensure animal well-being (general behavior and daily body weight). • 6. […] SpO2 and whole-body plethysmography were also evaluated 24, 48 and 72 hours post-instillation. • 8. […]"}
{"smiles": "O=C(NCc1ccncc1)C12CC3CC(C1)CC(c1ccc(Cl)cc1)(C3)C2", "note": "[ABC294640, 3-(4-chlorophenyl)-adamantane-1-carboxylic acid (pyridin-4-ylmethyl)amide]", "values": [{"measurement": "thrombosis (blood clot length, weight and total thrombus score)", "value": "reduction of thrombosis"}]}
